Some test systems named below: NCI-H23 lung; MDA-MB-435; CCRF-CEM leukemia; SNB-75 CNS; HS 578T breast; BT-549 breast; MOLT-4 leukemia.
Assay in all cases: inhibition of tumour cell growth, NCI panel, 48 h

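Following 48 hours of exposure in 96-well plates, responses at five concentrations were used to interpolate endpoints linearly. At the GI50, growth is halved. At the TGI there is no net growth.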 Some results are limits rather than exact numbers.

With `CCc1ccc(NC(=O)COC(=O)c2cc([N+](=O)[O-])ccc2Sc2nnnn2C)cc1`, the GI50 is 9.79 µM in the assay with NCI-H23 lung; 3.42 µM with MDA-MB-435; 9.11 µM in the assay with CCRF-CEM leukemia; 13.1 µM in the assay on SNB-75 CNS; 2.65 µM in the assay on HS 578T breast; 4.42 µM in the assay with BT-549 breast. For the same compound, the GI50 in the assay on MOLT-4 leukemia was 20.3 µM. Moreover, the TGI in the assay with NCI-H23 lung came to 34.6 µM; with MDA-MB-435 it was 21.4 µM; with CCRF-CEM leukemia, 78.3 µM; with SNB-75 CNS, 35 µM; in the assay on HS 578T breast, 9.36 µM; with BT-549 breast, 26.6 µM. Moreover, the TGI in the assay on MOLT-4 leukemia worked out at 81.6 µM.

Take `Cn1cc(C2=C(c3cccc(OCC(O)CO)c3)C(=O)NC2=O)c2ccccc21` (stereo unspecified): the GI50 in the assay on NCI-H23 lung was above 25 µM; in the assay with MDA-MB-435, above 19.1 µM; with CCRF-CEM leukemia, above 25 µM; in the assay with SNB-75 CNS it was 5.86 µM; in the assay on HS 578T breast it was above 15.2 µM; with BT-549 breast it was above 25 µM. For the same compound, the GI50 with MOLT-4 leukemia is above 25 µM. In addition, the TGI with NCI-H23 lung, with MDA-MB-435, in the assay on CCRF-CEM leukemia, in the assay on SNB-75 CNS, in the assay on HS 578T breast and with BT-549 breast was above 25 µM each time. For the same compound, in the assay with MOLT-4 leukemia, the TGI is above 25 µM.

For the compound `O=[N+]([O-])c1cccc([As]=[As]c2cccc([N+](=O)[O-])c2)c1` (stereo unspecified), the GI50 was 0.182 µM in the assay with NCI-H23 lung; 0.122 µM with MDA-MB-435; 0.0273 µM with CCRF-CEM leukemia; 0.0611 µM with SNB-75 CNS; 0.098 µM in the assay with HS 578T breast; 0.0765 µM in the assay with BT-549 breast. Further, the GI50 in the assay with MOLT-4 leukemia is 0.104 µM. Also, the TGI in the assay with NCI-H23 lung was determined as 0.384 µM; in the assay with MDA-MB-435, 0.271 µM; in the assay on CCRF-CEM leukemia, 0.112 µM; in the assay with SNB-75 CNS, 0.206 µM; with HS 578T breast, 0.498 µM; in the assay with BT-549 breast, 0.204 µM. The TGI in the assay on MOLT-4 leukemia is 0.353 µM.

On to `O=C(Nc1ccc(Cl)c(Cl)c1)O/N=C\c1c(Cl)ccc([N+](=O)[O-])c1Cl`, for which the GI50 was 2.95 µM with NCI-H23 lung; 1.9 µM with MDA-MB-435; 1.88 µM with CCRF-CEM leukemia; 2.12 µM with SNB-75 CNS; 3.35 µM in the assay with HS 578T breast; 2.57 µM with BT-549 breast. For the same compound, the GI50 in the assay on MOLT-4 leukemia was 2.23 µM. The TGI with NCI-H23 lung came to 9.7 µM; in the assay with MDA-MB-435 it was 4.43 µM; in the assay on CCRF-CEM leukemia, 5.1 µM; in the assay with SNB-75 CNS, 9.5 µM; with HS 578T breast it was 38.7 µM; with BT-549 breast it was 6.42 µM. In the assay on MOLT-4 leukemia, the TGI was 5.46 µM.

For `CC1(C)C2C=CC1(C)C1(CC2)OCCO1` (stereo unspecified), the TGI in the assay on NCI-H23 lung, in the assay on MDA-MB-435, in the assay on CCRF-CEM leukemia, in the assay on SNB-75 CNS, with HS 578T breast and with MOLT-4 leukemia was above 100 µM each time.

As for `COc1cc(/C=C2\Sc3scc(-c4cccc([N+](=O)[O-])c4)[n+]3C2=O)cc(OC)c1OC`, the TGI with NCI-H23 lung came to 33.2 µM; in the assay on MDA-MB-435 it was 25.2 µM; with CCRF-CEM leukemia it was 90.6 µM; with SNB-75 CNS it was 8.77 µM; in the assay on HS 578T breast, 57.1 µM; with MOLT-4 leukemia it was 11.8 µM.

Take `COc1cc([C@H]2OC[C@H]3[C@@H]2CO[C@@H]3c2cc(OC)c3c(c2)OCO3)cc(OC)c1OC`: the TGI with NCI-H23 lung, in the assay with MDA-MB-435, in the assay on SNB-75 CNS, in the assay on HS 578T breast and in the assay with BT-549 breast was above 100 µM in each case.

Take `Nc1[nH]nc2nc(-c3cccs3)cc(C(F)(F)F)c12`: the GI50 is above 25 µM in the assay with NCI-H23 lung; above 25 µM with MDA-MB-435; above 25 µM in the assay with SNB-75 CNS; above 25 µM with HS 578T breast; above 24.1 µM in the assay with BT-549 breast. In addition, the TGI in the assay on NCI-H23 lung, with MDA-MB-435, in the assay with SNB-75 CNS, with HS 578T breast and in the assay with BT-549 breast was above 25 µM throughout.

Take `COc1ccc(C2SC(C)C(=O)N2NC(=O)C(O)c2ccccc2)cc1OC` (stereo unspecified): the GI50 in the assay with MDA-MB-435, with CCRF-CEM leukemia, with SNB-75 CNS, in the assay with HS 578T breast, in the assay on BT-549 breast and in the assay with MOLT-4 leukemia was above 100 µM in each case. The TGI in the assay with MDA-MB-435, with CCRF-CEM leukemia, in the assay on SNB-75 CNS, in the assay with HS 578T breast, in the assay on BT-549 breast and in the assay with MOLT-4 leukemia was above 100 µM in each case.

Regarding `NC(=O)c1c(NC(=O)c2ccc3c(c2)OCO3)sc2c1CCC(=O)C2`, the GI50 is 1.32 µM in the assay with NCI-H23 lung; 3.16 µM in the assay with MDA-MB-435; 0.333 µM in the assay with CCRF-CEM leukemia; 2.13 µM in the assay with SNB-75 CNS; 0.373 µM with BT-549 breast. Further, the TGI in the assay with NCI-H23 lung was 5.64 µM; with MDA-MB-435 it was above 100 µM; in the assay on CCRF-CEM leukemia, 2.32 µM; with SNB-75 CNS, 6.5 µM; in the assay on BT-549 breast, 5.57 µM.

With `COc1ccc(C(=O)c2cc3c(N)c(C(=O)Nc4cccc5ccccc45)sc3nc2C)cc1`, the GI50 was 0.334 µM in the assay on NCI-H23 lung; 0.199 µM with CCRF-CEM leukemia; 0.137 µM with SNB-75 CNS; 0.198 µM in the assay on HS 578T breast; 0.379 µM in the assay on BT-549 breast; 0.308 µM in the assay with MOLT-4 leukemia. In addition, the TGI with NCI-H23 lung, in the assay with CCRF-CEM leukemia, in the assay with SNB-75 CNS, with HS 578T breast, in the assay with BT-549 breast and in the assay on MOLT-4 leukemia was above 50 µM throughout.

For the compound `Cc1ccc(CNc2c3ccccc3nc3cc(NC(=O)CCN4CCCC4)ccc23)cc1`, the GI50 in the assay on NCI-H23 lung is 0.518 µM; in the assay with MDA-MB-435, 1.33 µM; in the assay on CCRF-CEM leukemia, 0.392 µM; with SNB-75 CNS it was 1.06 µM; in the assay on BT-549 breast, 1.47 µM; in the assay on MOLT-4 leukemia, 0.316 µM. Further, the TGI in the assay with NCI-H23 lung turned out to be 1.81 µM; with MDA-MB-435 it was 2.62 µM; with CCRF-CEM leukemia, 2.12 µM; in the assay on SNB-75 CNS it was 2.26 µM; with BT-549 breast, 2.88 µM; in the assay with MOLT-4 leukemia it was 1.32 µM.

As for `CCCOC(=O)N1CCN(/[N+]([O-])=N/Oc2ccc([N+](=O)[O-])cc2[N+](=O)[O-])CC1`, the GI50 in the assay with NCI-H23 lung was 2.25 µM; in the assay on MDA-MB-435, 0.366 µM; in the assay on SNB-75 CNS, 18.2 µM; in the assay with HS 578T breast it was 4.95 µM; in the assay with BT-549 breast, 3.46 µM; in the assay with MOLT-4 leukemia, 2.35 µM. The TGI in the assay on NCI-H23 lung was 5.34 µM; in the assay with MDA-MB-435, 12.2 µM; with SNB-75 CNS it was 36.1 µM; with HS 578T breast, 50.9 µM; with BT-549 breast, 11.7 µM; with MOLT-4 leukemia it was above 100 µM.

The values are drawn from PubChem BioAssay (NCI).
